Values belong to the compound of their own block, whether it stands above or below them.
Target: T1, Androgen Receptor (Homo sapiens, UniProt P10275+P40337, T878A)
T1 construct: Compounds have been evaluated in this assay in LNCaP and/or VCaP cells utilizing similar protocols; endogenous in cells; host or cells: LNCaP cells
Experiment: Androgen Receptor ELISA assay (PathScan AR ELISA) in LNCaP cells: AR degradation, Dmax and DC50
Format: cell-based
Conditions: for DC50: concentration that caused 50% Androgen Receptor degradation

[1] = highest percentage of Androgen Receptor degradation observed
[2] = highest percentage of Androgen Receptor degradation

T1 sequence (P10275 whole entry T878A): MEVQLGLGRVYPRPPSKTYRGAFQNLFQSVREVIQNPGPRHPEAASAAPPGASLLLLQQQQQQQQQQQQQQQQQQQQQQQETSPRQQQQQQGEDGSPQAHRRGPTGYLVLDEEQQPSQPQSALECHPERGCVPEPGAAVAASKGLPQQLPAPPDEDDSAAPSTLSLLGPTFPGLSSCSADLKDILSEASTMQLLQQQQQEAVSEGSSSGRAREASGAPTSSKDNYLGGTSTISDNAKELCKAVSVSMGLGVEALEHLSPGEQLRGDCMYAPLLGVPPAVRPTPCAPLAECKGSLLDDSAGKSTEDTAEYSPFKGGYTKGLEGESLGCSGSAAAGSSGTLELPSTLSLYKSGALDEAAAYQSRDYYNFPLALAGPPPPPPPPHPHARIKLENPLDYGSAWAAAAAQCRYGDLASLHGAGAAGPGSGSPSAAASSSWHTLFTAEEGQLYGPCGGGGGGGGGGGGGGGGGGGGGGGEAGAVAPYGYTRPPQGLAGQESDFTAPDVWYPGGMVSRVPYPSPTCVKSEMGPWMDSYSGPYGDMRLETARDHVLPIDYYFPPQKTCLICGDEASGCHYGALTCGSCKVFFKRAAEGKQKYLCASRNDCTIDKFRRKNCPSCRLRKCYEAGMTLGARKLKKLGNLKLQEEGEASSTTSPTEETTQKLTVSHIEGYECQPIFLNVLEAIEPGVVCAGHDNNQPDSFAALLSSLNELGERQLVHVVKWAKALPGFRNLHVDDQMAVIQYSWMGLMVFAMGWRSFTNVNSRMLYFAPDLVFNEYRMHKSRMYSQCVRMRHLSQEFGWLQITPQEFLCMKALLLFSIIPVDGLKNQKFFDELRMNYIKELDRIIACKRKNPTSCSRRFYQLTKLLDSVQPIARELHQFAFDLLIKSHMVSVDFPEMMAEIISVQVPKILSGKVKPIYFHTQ
T1 sequence (P40337 whole entry): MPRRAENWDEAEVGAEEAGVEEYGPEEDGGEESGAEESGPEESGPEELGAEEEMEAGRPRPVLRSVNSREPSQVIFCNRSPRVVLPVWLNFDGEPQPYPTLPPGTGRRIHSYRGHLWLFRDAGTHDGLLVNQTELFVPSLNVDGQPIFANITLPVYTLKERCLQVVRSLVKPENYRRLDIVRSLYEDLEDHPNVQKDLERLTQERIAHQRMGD
T1 sequence (Q15369 whole entry partner): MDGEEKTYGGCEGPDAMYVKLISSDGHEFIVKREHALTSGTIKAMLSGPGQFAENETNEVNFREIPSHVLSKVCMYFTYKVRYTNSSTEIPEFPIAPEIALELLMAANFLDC
T1 sequence (Q15370 whole entry partner): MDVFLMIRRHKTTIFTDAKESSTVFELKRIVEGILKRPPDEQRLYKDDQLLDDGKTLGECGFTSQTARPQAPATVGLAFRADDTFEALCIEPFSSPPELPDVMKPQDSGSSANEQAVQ

DC50: < 50 nM | Dmax [1]: > 71%
SMILES: COc1cc(N2C(=O)C(C)(C)N(c3ccc(OCCCCCOCCCOCC(=O)N[C@H](C(=O)N4C[C@H](O)C[C@H]4C(=O)NCc4ccc(-c5scnc5C)cc4)C(C)(C)C)cc3)C2=S)ccc1C#N [Example 9, (2S,4R)-1-[(2S)-2-(2-{3-[(5-{4-[3-(4-cyano-3-methoxyphenyl)-5,5-dimethyl-4-oxo-2-sulfanylideneimidazolidin-1-yl]phenoxy}pentyl)oxy]propoxy}acetamido)-3,3-dimethylbutanoyl]-4-hydroxy-N-{[4-(4-methyl-1,3-thiazol-5-yl)phenyl]methyl}pyrrolidine-2-carboxamide]

SMILES: Cc1ncsc1-c1ccc(CNC(=O)[C@@H]2C[C@@H](O)CN2C(=O)[C@@H](NC(=O)c2ccc(OCCOCCOc3ccc(N4C(=S)N(c5ccc(C#N)c(C(F)(F)F)c5)C(=O)C4(C)C)cc3)cc2)C(C)(C)C)cc1 [Example 264]
DC50: 51 to 500 nM | Dmax [2]: < 25%

SMILES: Cc1ncsc1-c1ccc(CNC(=O)[C@@H]2C[C@@H](O)CN2C(=O)[C@@H](NC(=O)CC(=O)CCCOCCCCCOc2ccc(N3C(=S)N(c4ccc(C#N)c(C(F)(F)F)c4)C(=O)C3(C)C)cc2)C(C)(C)C)cc1 [Example 305]
DC50: 51 to 500 nM | Dmax [2]: 51 to 70%

SMILES: CC(=O)N[C@H](C(=O)N1C[C@H](O)C[C@H]1C(=O)NCc1ccc(-c2scnc2C)cc1OCCOCCOCCOc1ccc(N2C(=S)N(c3ccc(C#N)c(C(F)(F)F)c3)C(=O)C2(C)C)cc1)C(C)C [Example 281]
DC50: > 501 nM | Dmax [2]: 51 to 70%

SMILES: Cc1ncsc1-c1ccc(CNC(=O)[C@@H]2C[C@@H](O)CN2C(=O)[C@@H](NC(=O)COCCOCCCOc2ccc(N3C(=S)N(c4ccc(C#N)c(C(F)(F)F)c4)C(=O)C3(C)C)cc2)C(C)(C)C)cc1 [Example 243]
DC50: 51 to 500 nM | Dmax [2]: 51 to 70%

SMILES: Cc1ncsc1-c1ccc(CNC(=O)C2C[C@@H](OC(C)(C)C)CN2C(=O)[C@H](C(C)C)N2Cc3ccccc3C2=O)c(OCCOCCOCCOc2ccc(N3C(=O)N(c4ccc(C#N)c(C(F)(F)F)c4)C(=O)C3(C)C)cc2)c1 (stereo partly shown) [Example 234]
DC50: 51 to 500 nM | Dmax [2]: 26 to 50%

SMILES: Cc1ncsc1-c1ccc(CNC(=O)[C@@H]2C[C@@H](O)CN2C(=O)[C@@H](NC(=O)CCCCOc2ccc(CCCOc3ccc(N4C(=S)N(c5ccc(C#N)c(C(F)(F)F)c5)C(=O)C4(C)C)cc3)cc2)C(C)(C)C)cc1 [Example 259]
DC50: 51 to 500 nM | Dmax [2]: > 71%

SMILES: Cc1ncsc1-c1ccc(CNC(=O)[C@@H]2C[C@@H](O)CN2C(=O)[C@@H](NC(=O)C(C)(C)C)C(C)(C)C)c(OCCOCCOCCOc2ccc(N3C(=S)N(c4ccc(C#N)c(C(F)(F)F)c4)C(=O)C3(C)C)cc2)c1 [Example 270]
DC50: 51 to 500 nM | Dmax [2]: 51 to 70%

SMILES: Cc1ncsc1-c1ccc(CNC(=O)[C@@H]2C[C@@H](O)CN2C(=O)[C@@H](NC(=O)COCCOCCOCCCCCOCCOCCOc2ccc(N3C(=S)N(c4ccc(C#N)c(C(F)(F)F)c4)C(=O)C3(C)C)cc2)C(C)(C)C)cc1 [Example 222]
Dmax [2]: 26 to 50%

SMILES: Cc1ncsc1-c1ccc(CNC(=O)[C@@H]2C[C@@H](O)CN2C(=O)[C@H](C(C)C)N2Cc3ccccc3C2=O)c(OCCOCCOCCCCOCCOCCOc2ccc(N3C(=S)N(c4ccc(C#N)c(C(F)(F)F)c4)C(=O)C3(C)C)cc2)c1 [Example 215]
DC50: 51 to 500 nM | Dmax [2]: 26 to 50%

SMILES: Cc1ncsc1-c1ccc(CNC(=O)[C@@H]2C[C@@H](O)CN2C(=O)[C@@H](NC(=O)c2ccc(OCCOC3CCN(C(=O)c4ccc(N5C(=S)N(c6ccc(C#N)c(C(F)(F)F)c6)C(=O)C5(C)C)cc4)CC3)cc2)C(C)(C)C)cc1 [Example 291]
DC50: > 501 nM | Dmax [2]: < 25%

SMILES: Cc1ncsc1-c1ccc(CNC(=O)[C@@H]2C[C@@H](O)CN2C(=O)[C@H](C(C)C)N2Cc3cccc(C#N)c3C2=O)c(OCCOCCOCCOc2ccc(N3C(=S)N(c4ccc(C#N)c(C(F)(F)F)c4)C(=O)C3(C)C)cc2)c1 [Example 84]
DC50: 51 to 500 nM | Dmax [1]: 51 to 70%

SMILES: Cc1ncsc1-c1ccc(CNC(=O)[C@@H]2C[C@@H](O)CN2C(=O)[C@@H](NC(=O)CCNC(=O)CCCc2ccc(N3C(=S)N(c4ccc(C#N)c(C(F)(F)F)c4)C(=O)C3(C)C)cc2)C(C)(C)C)cc1 [Example 231]
DC50: > 501 nM | Dmax [2]: 51 to 70%

SMILES: Cc1ncsc1-c1ccc(CNC(=O)[C@@H]2C[C@@H](O)CN2C(=O)[C@H](C(C)C)N2Cc3ccccc3C2=O)c(OCCCCOCCCOc2ccc(N3C(=S)N(c4ccc(C#N)c(C(F)(F)F)c4)C(=O)C3(C)C)cc2)c1 [Example 279]
DC50: > 501 nM | Dmax [2]: 51 to 70%

SMILES: Cc1ncsc1-c1ccc(CNC(=O)[C@@H]2C[C@@H](O)CN2C(=O)[C@@H](NC(=O)COCCOCCN(C)C(=O)CCCc2ccc(N3C(=S)N(c4ccc(C#N)c(C(F)(F)F)c4)C(=O)C3(C)C)cc2)C(C)(C)C)cc1 [Example 64, (2S,4R)-1-[(2S)-2-[2-(2-{2-[4-(4-{3-[4-cyano-3-(trifluoromethyl)phenyl]-5,5-dimethyl-4-oxo-2-sulfanylideneimidazolidin-1-yl}phenyl)-N-methylbutanamido]ethoxy}ethoxy)acetamido]-3,3-dimethylbutanoyl]-4-hydroxy-N-{[4-(4-methyl-1,3-thiazol-5-yl)phenyl]methyl}pyrrolidine-2-carboxamide]
DC50: 51 to 500 nM | Dmax [1]: 51 to 70%

Dmax [1]: 26 to 50%
SMILES: Cc1ncsc1-c1ccc(CNC(=O)[C@@H]2C[C@@H](O)CN2C(=O)[C@@H](NC(=O)COCCOCCOCCOc2ccc(N3C(=S)N(c4cnc(C#N)c(C(F)(F)F)c4)C(=O)C3(C)C)cc2)C(C)(C)C)cc1 [Example 21, (2S,4R)-1-[(2S)-2-[2-(2-{2-[2-(4-{3-[6-cyano-5-(trifluoromethyl)pyridin-3-yl]-5,5-dimethyl-4-oxo-2-sulfanylideneimidazolidin-1-yl}phenoxy)ethoxy]ethoxy}ethoxy)acetamido]-3,3-dimethylbutanoyl]-4-hydroxy-N-{[4-(4-methyl-1,3-thiazol-5-yl)phenyl]methyl}pyrrolidine-2-carboxamide]

DC50: < 50 nM | Dmax [1]: 51 to 70%
SMILES: Cc1ncsc1-c1ccc(CNC(=O)[C@@H]2C[C@@H](O)CN2C(=O)[C@@H](NC(=O)COCCCOCCCCCOc2ccc(N3C(=S)N(c4ccc(C#N)c(F)c4)C(=O)C3(C)C)cc2)C(C)(C)C)cc1 [Example 7]

SMILES: Cc1ncsc1-c1ccc(CNC(=O)[C@@H]2C[C@@H](O)CN2C(=O)[C@@H](NC(=O)COCCOCCOCCOc2ccc(N3C(=O)N(c4ccc(C#N)c(C(F)(F)F)c4)C(=O)C3(C)C)cc2)C(C)(C)C)cc1 [Example 17, (2S,4R)-1-[(2S)-2-[2-(2-{2-[2-(4-{3-[4-cyano-3-(trifluoromethyl)phenyl]-5,5-dimethyl-2,4-dioxoimidazolidin-1-yl}phenoxy)ethoxy]ethoxy}ethoxy)acetamido]-3,3-dimethylbutanoyl]-4-hydroxy-N-{[4-(4-methyl-1,3-thiazol-5-yl)phenyl]methyl}pyrrolidine-2-carboxamide]
DC50: 51 to 500 nM | Dmax [1]: 26 to 50%

SMILES: Cc1ncsc1-c1ccc(CNC(=O)[C@@H]2C[C@@H](O)CN2C(=O)[C@H](C(C)C)N2Cc3cc(CCCOCCOc4ccc(N5C(=S)N(c6ccc(C#N)c(C(F)(F)F)c6)C(=O)C5(C)C)cc4)ccc3C2=O)cc1 [Example 248]
DC50: 51 to 500 nM | Dmax [2]: 26 to 50%

SMILES: Cc1ncsc1-c1ccc(CNC(=O)[C@@H]2C[C@@H](O)CN2C(=O)[C@@H](NC(=O)c2cccc(OCCCOc3ccc(N4C(=S)N(c5ccc(C#N)c(C(F)(F)F)c5)C(=O)C4(C)C)cc3)c2)C(C)(C)C)cc1 [Example 277]
DC50: 51 to 500 nM | Dmax [2]: < 25%

SMILES: Cc1ncsc1-c1ccc(CNC(=O)[C@@H]2C[C@@H](O)CN2C(=O)[C@H](C(C)C)N2Cc3cc(CCCCOCCOc4ccc(N5C(=S)N(c6ccc(C#N)c(C(F)(F)F)c6)C(=O)C5(C)C)cc4)ccc3C2=O)cc1 [Example 252]
DC50: 51 to 500 nM | Dmax [2]: 51 to 70%

SMILES: Cc1ncsc1-c1ccc(CNC(=O)[C@@H]2C[C@@H](O)CN2C(=O)[C@@H](NC(=O)CCCOc2ccc(N3C(=S)N(c4ccc(C#N)c(C(F)(F)F)c4)C(=O)C3(C)C)cc2)C(C)(C)C)cc1 [Example 237]
DC50: > 501 nM | Dmax [2]: 26 to 50%

SMILES: Cc1ncsc1-c1ccc(CNC(=O)[C@@H]2C[C@@H](O)CN2C(=O)[C@@H](NC(=O)COCCOCCOCCCCOCCOCCOc2ccc(N3C(=S)N(c4ccc(C#N)c(C(F)(F)F)c4)C(=O)C3(C)C)cc2)C(C)(C)C)cc1 [Example 217]
DC50: < 50 nM | Dmax [2]: 51 to 70%

SMILES: CC[C@H](NC(C)=O)C(=O)N1C[C@H](O)C[C@H]1C(=O)NCc1ccc(-c2scnc2C)cc1OCCOCCOCCOc1ccc(N2C(=S)N(c3ccc(C#N)c(C(F)(F)F)c3)C(=O)C2(C)C)cc1 [Example 280]
DC50: > 501 nM | Dmax [2]: 26 to 50%

SMILES: Cc1ncsc1-c1ccc(CNC(=O)[C@@H]2C[C@@H](O)CN2C(=O)[C@@H](NC(=O)CCOCCOCCOc2ccc(-c3ccc(N4C(=S)N(c5ccc(C#N)c(C(F)(F)F)c5)C(=O)C4(C)C)cc3)cc2)C(C)(C)C)cc1 [Example 68, (2S,4R)-1-[(2S)-2-[3-(2-{2-[4-(4-{3-[4-cyano-3-(trifluoromethyl)phenyl]-5,5-dimethyl-4-oxo-2-sulfanylideneimidazolidin-1-yl}phenyl)phenoxy]ethoxy}ethoxy)propanamido]-3,3-dimethylbutanoyl]-4-hydroxy-N-{[4-(4-methyl-1,3-thiazol-5-yl)phenyl]methyl}pyrrolidine-2-carboxamide]
DC50: 51 to 500 nM | Dmax [1]: 26 to 50%

SMILES: Cc1ncsc1-c1ccc(CNC(=O)[C@@H]2C[C@@H](O)CN2C(=O)[C@@H](NC(=O)c2ccccc2OCCCOc2ccc(N3C(=S)N(c4ccc(C#N)c(C(F)(F)F)c4)C(=O)C3(C)C)cc2)C(C)(C)C)cc1 [Example 275]
DC50: > 501 nM | Dmax [2]: < 25%

SMILES: Cc1ncsc1-c1ccc(CNC(=O)[C@@H]2C[C@@H](O)CN2C(=O)[C@H](C(C)C)N2Cc3ccccc3C2=O)c(OCCOCCOCCOCCOc2ccc(N3C(=S)N(c4ccc(C#N)c(C(F)(F)F)c4)C(=O)C3(C)C)cc2)c1 [Example 210]
DC50: > 501 nM | Dmax [2]: 26 to 50%

— patent publication US11427548B2 (Arvinas Operations, Inc., priority 2015, dated 2022)
